From ChEMBL document CHEMBL5303766, “Data for DCP probe FHT-2344” (2022) come the findings set out here.

Experiment [1] concerns the target Mitogen-activated protein kinase 1 (Homo sapiens) (UniProt P28482). As to the kind of experiment: MAPK1 SGC Tm panel (DSF). The following applies: for ΔTm: Compound concentration 10.0 uM.
In experiment [2] the target is T1, Peregrin (Homo sapiens) (UniProt P55201).
T1 sequence (whole entry): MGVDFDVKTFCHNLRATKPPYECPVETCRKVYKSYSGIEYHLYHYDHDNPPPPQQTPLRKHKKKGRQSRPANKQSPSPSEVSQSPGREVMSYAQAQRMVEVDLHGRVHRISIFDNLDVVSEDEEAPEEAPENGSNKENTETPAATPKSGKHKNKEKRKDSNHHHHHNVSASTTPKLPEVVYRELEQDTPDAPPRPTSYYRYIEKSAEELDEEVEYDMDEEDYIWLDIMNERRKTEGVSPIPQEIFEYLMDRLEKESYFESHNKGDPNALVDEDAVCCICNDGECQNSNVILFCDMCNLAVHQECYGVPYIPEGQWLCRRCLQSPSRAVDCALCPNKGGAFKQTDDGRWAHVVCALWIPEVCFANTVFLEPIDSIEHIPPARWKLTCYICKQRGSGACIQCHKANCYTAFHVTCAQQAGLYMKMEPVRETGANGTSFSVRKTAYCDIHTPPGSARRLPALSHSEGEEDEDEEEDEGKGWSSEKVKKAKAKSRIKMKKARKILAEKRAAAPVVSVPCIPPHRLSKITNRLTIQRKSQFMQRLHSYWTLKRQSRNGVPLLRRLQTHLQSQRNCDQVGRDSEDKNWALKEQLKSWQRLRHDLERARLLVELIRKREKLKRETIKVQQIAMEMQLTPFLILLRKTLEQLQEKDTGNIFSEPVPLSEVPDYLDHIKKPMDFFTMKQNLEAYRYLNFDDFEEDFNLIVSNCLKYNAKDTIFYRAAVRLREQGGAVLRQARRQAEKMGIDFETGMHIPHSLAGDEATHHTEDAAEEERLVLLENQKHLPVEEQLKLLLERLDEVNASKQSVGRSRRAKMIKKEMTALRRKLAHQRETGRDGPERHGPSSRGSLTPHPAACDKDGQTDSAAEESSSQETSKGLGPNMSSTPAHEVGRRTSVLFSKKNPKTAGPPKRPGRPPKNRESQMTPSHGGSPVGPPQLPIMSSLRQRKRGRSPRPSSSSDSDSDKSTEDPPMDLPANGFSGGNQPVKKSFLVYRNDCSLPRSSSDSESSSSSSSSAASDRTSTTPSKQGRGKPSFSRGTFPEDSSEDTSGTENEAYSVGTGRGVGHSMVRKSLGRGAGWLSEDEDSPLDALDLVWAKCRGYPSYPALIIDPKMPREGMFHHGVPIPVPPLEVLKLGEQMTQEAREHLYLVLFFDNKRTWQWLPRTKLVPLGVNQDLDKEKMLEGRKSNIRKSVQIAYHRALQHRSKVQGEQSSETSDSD
In words: BRPF1 SGC Tm panel (DSF). The following applies: for ΔTm: Compound concentration 10.0 uM.

Experiment [3] addresses Alpha-1D adrenergic receptor (Homo sapiens) (UniProt P25100). The following applies: Compound concentration 10.0 uM.
Experiment [4] addresses T2, Myotonin-protein kinase (Homo sapiens) (UniProt Q09013).
T2 sequence (whole entry): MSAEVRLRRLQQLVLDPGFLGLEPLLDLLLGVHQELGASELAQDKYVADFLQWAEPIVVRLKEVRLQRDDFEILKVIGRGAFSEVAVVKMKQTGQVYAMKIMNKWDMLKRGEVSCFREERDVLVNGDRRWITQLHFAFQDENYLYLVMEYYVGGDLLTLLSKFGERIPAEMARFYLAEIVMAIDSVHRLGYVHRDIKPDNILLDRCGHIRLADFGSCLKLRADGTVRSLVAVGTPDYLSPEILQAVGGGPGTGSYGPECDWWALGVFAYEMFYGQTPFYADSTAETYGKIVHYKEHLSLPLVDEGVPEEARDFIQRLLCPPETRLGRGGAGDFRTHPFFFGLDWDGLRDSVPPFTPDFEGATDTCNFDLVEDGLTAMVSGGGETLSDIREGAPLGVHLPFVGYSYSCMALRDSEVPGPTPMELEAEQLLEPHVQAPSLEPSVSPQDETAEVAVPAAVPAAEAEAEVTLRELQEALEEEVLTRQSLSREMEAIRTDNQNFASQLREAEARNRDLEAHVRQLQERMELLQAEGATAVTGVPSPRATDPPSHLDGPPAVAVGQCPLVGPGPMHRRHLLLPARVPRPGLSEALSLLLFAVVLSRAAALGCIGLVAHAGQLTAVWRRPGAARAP
In words: DMPK SGC Tm panel (DSF). To be noted: for ΔTm: Compound concentration 10.0 uM.

Sequence of Mitogen-activated protein kinase 1 (Homo sapiens) (P28482 whole entry): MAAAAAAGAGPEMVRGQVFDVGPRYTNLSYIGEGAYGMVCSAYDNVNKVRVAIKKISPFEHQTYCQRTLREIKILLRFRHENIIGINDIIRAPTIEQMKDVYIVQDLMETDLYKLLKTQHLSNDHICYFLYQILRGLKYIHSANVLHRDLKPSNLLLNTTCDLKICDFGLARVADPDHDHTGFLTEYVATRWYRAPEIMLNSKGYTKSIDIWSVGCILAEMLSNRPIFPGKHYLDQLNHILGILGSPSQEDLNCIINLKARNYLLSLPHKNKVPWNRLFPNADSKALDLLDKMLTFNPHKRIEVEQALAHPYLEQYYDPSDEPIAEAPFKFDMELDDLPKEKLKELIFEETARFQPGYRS
Sequence of Alpha-1D adrenergic receptor (Homo sapiens) (P25100 whole entry): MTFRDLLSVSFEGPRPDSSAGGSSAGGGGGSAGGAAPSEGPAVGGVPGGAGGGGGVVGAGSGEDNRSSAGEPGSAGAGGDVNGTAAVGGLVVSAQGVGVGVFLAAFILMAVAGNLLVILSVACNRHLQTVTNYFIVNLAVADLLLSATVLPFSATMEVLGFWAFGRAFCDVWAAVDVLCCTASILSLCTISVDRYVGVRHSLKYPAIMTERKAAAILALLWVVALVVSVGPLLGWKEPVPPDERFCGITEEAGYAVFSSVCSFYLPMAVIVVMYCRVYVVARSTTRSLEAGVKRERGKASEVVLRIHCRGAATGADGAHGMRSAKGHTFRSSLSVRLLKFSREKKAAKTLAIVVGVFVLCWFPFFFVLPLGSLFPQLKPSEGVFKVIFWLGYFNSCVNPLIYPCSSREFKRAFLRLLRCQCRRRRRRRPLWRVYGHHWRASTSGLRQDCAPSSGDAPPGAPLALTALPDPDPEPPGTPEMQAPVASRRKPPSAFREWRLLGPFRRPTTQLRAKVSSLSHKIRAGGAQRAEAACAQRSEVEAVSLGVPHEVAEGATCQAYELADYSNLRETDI

As a reminder, the inhibition is the change of the read-out against control, counted positive when it falls. As to `COC[C@H](NC(=O)c1ccn(S(C)(=O)=O)c1)C(=O)Nc1nc(-c2cccc(-c3ccn(C)n3)c2)cs1`, the delta Tm Staurosporine positive control in experiment [1] is 1.98; in experiment [2], -0.0506; in experiment [4], 9.28. Moreover, the ΔTm was 0.812 in experiment [1], -1.23 in experiment [2] and 0.564 in experiment [4]. Also, the inhibition in experiment [3] was 30.4%.
As for `C[C@H](NC(=O)c1cn(C2(C#N)CC2)cn1)C(=O)Nc1nc(-c2cccc(-c3ccn(C)n3)c2)cs1`, the delta Tm Staurosporine positive control in experiment [1] is 1.98; in experiment [2], -0.0506; in experiment [4], 9.28. Moreover, the ΔTm in experiment [1] is 0.442; in experiment [2], -1.18; in experiment [4], -0.281. The inhibition in experiment [3] was 42%.
